Data taken from PMC6706930, “A novel oral micellar fenretinide formulation with enhanced bioavailability and antitumour activity against multiple tumours from cancer stem cells” (Journal of Experimental & Clinical Cancer Research : CR, 2019).
Where two headings read alike, the source gives them in different places.

Experiment: Plasma pharmacokinetics, chronic study (150 mg/Kg single vs daily for 2 weeks)
Type: in vivo, CD1 female mice
Settings: for relative percent amount of metabolite versus 4-HPR in plasma: after single and repeated treatment; for AUC(0-t): plasma, po, 150 mg/kg
Experimental: The experiments were performed in CD1 female mice, 7 weeks of age, (body weight 25 ± 2 g) obtained from Envigo RMS SrL (Udine, Italy). They were maintained under specific-pathogen-free conditions with constant temperature and humidity, according to institutional guidelines regularly checked by a certified veterinarian. Animal experimentation was conducted in conformance with the following laws, regulations, and policies governing the care and use of laboratory animals: Italian Governing Law (D. l. 26/2014; Authorization n.19/2008-A issued March 6, 2008 by the Ministry of Health). Mario Negri Institutional Regulations and Policies providing internal authorizations for persons conducting animal experiments (Quality Management System Certificate –UNI EN ISO 9001:2008 – Reg. N 86121). The experimental protocol was reviewed by the Mario Negri Institute Ethical Committee and approved by the Italian Ministry of Health (Aut. Min. No 489/2016-Pr).
The pharmacokinetics of oral Bio-nFeR was investigated in comparison to that of the reference formulation NCI-FeR, after single administration of multiple doses and after chronic administrations, daily for 2 weeks or bi-daily for 1 week. Bio-nFeR was reconstituted at 20 mg/mL fenretinide to allow the administration of 200 mg/Kg fenretinide that corresponded to the highest dose. The doses of 100, 50 and 10 mg/Kg were administered by using serial dilution of the 20 mg/mL solution.
NCI-FeR prepared, as per the NCI instructions, at 11.6% w:w fenretinide:internal capsule components, was diluted with corn oil to obtain the treatment solutions at the concentrations of 20, 15 and 10 mg/mL, corresponding to the administered doses of 200, 150 and 100 mg/Kg respectively.
The oral pharmacokinetics of Bio-nFeR were investigated in four independent groups of 24 mice, randomized to receive different treatment with the following fenretinide equivalent doses: 10, 50, 100 and 200 mg/Kg. The drug was administered by oral gavage and after treatment, blood samples were taken at 15 and 30 min and at 1, 2, 4, 8/10, 24 and 48 h and collected in heparinized tubes from the retro-orbital plexus of the mice under isoflurane anesthesia. Mice were then sacrificed by cervical dislocation and liver, kidney and brain were removed and immediately frozen in dry-ice for future determination. To obtain plasma, blood was centrifuged at 4000 rpm for 10 min at 4 °C. To evaluate fenretinide and metabolites excretion, urine and faeces were collected over a 0–24 h and 24–48 h periods. The collection was performed in three mice per group of treatment, individually housed into metabolic cages for urine and faeces collection. All the biological samples were stored at − 20 °C until analysis. To compare the absorption of Bio-nFeR to NCI-FeR and to study the bioavailability, another independent groups of 24 mice were randomized to receive an oral dose of 200 mg/Kg of NCI-FeR. Blood samples were taken at the time reported above. Twenty-four hours fractions of urine and faeces were collected in three mice per group of treatment. Plasma and the other biological specimens were stored at − 20 °C until analysis. Chronic study: the oral pharmacokinetic of Bio-nFeR in comparison with NCI-FeR were also investigated after chronic administrations. Mice were divided in three independent groups, randomized to receive a single treatment of 150 mg/Kg or different repeated treatments of 150 mg/Kg, daily for 2 weeks (12 days on and 2 days off), or 100 mg/Kg bi-daily for 1 week (5 days on 2 days off). Bio-nFeR and NCI-FeR were administered by oral gavage, collecting blood samples at 0.5, 1, 2, 4, 8/10 and 24 h, the day of the single treatment and at 0, 1, 2, 4, 8/10, 24 and 48 h after the last dose of both the chronic treatments. The procedures of blood collection, plasma preparation, sacrifice of mice and storing of samples were as reported in acute study. […]

[1] = plasma analyte, oral Bio-nFeR 150 mg/kg daily, 2 week
[2] = plasma analyte, oral Bio-nFeR 150 mg/kg, Day 1
[3] = female, CD1, mouse, plasma analyte, oral Bio-nFeR 150 mg/kg daily, 2 week
[4] = female, CD1, mouse, plasma analyte, oral Bio-nFeR 150 mg/kg, Day 1

SMILES | relative percent amount of metabolite versus 4-HPR in plasma | AUC 0-last [1] [ng·h/mL] | Cmax ±SD [1] [ng/mL] | HL [1] [h] | Tmax [1] [h] | AUC 0-last [2] [ng·h/mL] | Cmax ±SD [2] [ng/mL] | HL [2] [h] | Tmax [2] [h] | AUC(0-t) [3] [ng·h/mL] | AUC(0-t) [4] [ng·h/mL] | Cmax at 2 weeks [3] [ng/mL] | Tmax at 2 weeks [3] [h] | Cmax [4] [ng/mL] | Tmax (female, CD1, mouse, plasma analyte, oral Bio-nFeR 150 mg/kg, Day 1, read-out: Tmax) [h]
CC1=C(/C=C/C(C)=C/C=C/C(C)=C/C(=O)Nc2ccc(O)cc2)C(C)(C)CCC1=O [4-oxo-4-HPR] | about 50% | 54434.2 | 4282.6 | 4.7 | 4 | 33726.1 | 2979.4 | 3.9 | – | – | – | – | – | – | –
COc1ccc(NC(=O)\C=C(C)/C=C/C=C(C)\C=C\C2=C(C)CCCC2(C)C)cc1 [MPR] | ~15% | 22086.1 | 1147.9 | 11.2 | 4 | 10435.4 | 798.0 | 8.6 | 4 | – | – | – | – | – | –
CC1=C(/C=C/C(C)=C/C=C/C(C)=C/C(=O)Nc2ccc(O)cc2)C(C)(C)CCC1 [4-HPR, 4-hydroxy (phenyl)retinamide, reference compound] | – | – | – | 5.7 | – | – | – | 5.3 | – | 85100 | 56900 | 6810 | 4 | 6350 | 20
